Experimental data as given in patent publication US5521155A, “Amides of teicoplanin compounds” (Gruppo Lepetit S.p.A, priority 1985, dated 1996).
Converted amounts (≈) assume the structure as drawn.

Columns and labels:
[1] = Acid-base titration (pK); format: physicochemical; settings: acid-base titration in METHYLCELLOSOLVE/H2O 4:1 (v/v), 0.01N KOH
Description: The following table (Table IV) reports the acid-base titration data of some representative compounds of the invention. The assays were carried out in METHYLCELLOSOLVE/H2 O, 4:1(v/v). A sample is dissolved in METHYLCELLOSOLVE/H2 O, 4:1(v/v) (10 umole in about 20 ml) and then 0.01N HCl (2 ml) is added and the mixture is titrated with 0.01N KOH in the same solvent mixture.

[2] = system: S. pneumoniae UC 41; experiment: In vitro antibacterial activity, standard agar-dilution test (MIC); format: cell-based; settings: inoculum about 10^4 CFU/ml, 18-24 h at 37° C.
Description: (§1) The culture medium ISOSENSITEST BROTH (Oxoid) and the colture medium TODD-[…] BROTH (Difco) are used for growing staphylococci and streptococci, respectively. Broth cultures are diluted so that the final inoculum is about 10^4 colony forming units/ml (CFU/ml).

[3] = system: Pseudomonas aeruginosa ATCC 10145; experiment: as above; format: cell-based; settings: inoculum about 10^4 CFU/ml, 18-24 h at 37° C.
Description: as §1

[4] = system: S. pyogenes C 203; experiment: as above; format: cell-based; settings: inoculum about 10^4 CFU/ml, 18-24 h at 37° C.
Description: as §1

[5] = system: S. epidermidis ATCC 12228; experiment: as above; format: cell-based; settings: inoculum about 10^4 CFU/ml, 18-24 h at 37° C.
Description: as §1

[6] = system: S. faecalis ATCC 7080; experiment: as above; format: cell-based; settings: inoculum about 10^4 CFU/ml, 18-24 h at 37° C.
Description: as §1

[7] = system: S. aureus Tour; experiment: as above; format: cell-based; settings: inoculum about 10^4 CFU/ml, 18-24 h at 37° C.
Description: as §1

[8] = system: Proteus vulgaris X 19H ATCC 881; experiment: as above; format: cell-based; settings: inoculum about 10^4 CFU/ml, 18-24 h at 37° C.
Description: as §1

[9] = system: E. coli SKF 12140; experiment: as above; format: cell-based; settings: inoculum about 10^4 CFU/ml, 18-24 h at 37° C.
Description: as §1

[10] = system: S. pyogenes L 49; experiment: In vivo test in mice experimentally infected with S. pyogenes L 49 (ED50); settings: mice infected with S. pyogenes L 49; for ED50, route of administration os.: oral
[11] = Isoelectric point (pI) by isoelectrofocusing with bioautography detection; format: physicochemical; settings: IEF technique, polyacrylamide gel
Source text: The isoelectrofocusing (IEF) technique coupled with bioautography detection has been used for the determination of the pI of representative compounds of the invention using the following materials: AMPHOLINE carrier ampholytes (40% w/v) were purchased from LKB Produketer AB, Bromma, Sweden. Acrylamide, N,N'-methylenbisacrylamide (BIS), N,N,N',N'-tetramethylethylenediamine (TEMED) and ammonium persulfate were from Bio Rad Laboratorie, Richmond, Calif., USA. Glycerol and Antibiotic agar N. 1 (Grove and Randall medium N. 1) were from E. Merck Darmstadt FRG. GEL FIX polyester sheets were purchased from Serva Feinbiochemica Heidelberg. Phenolindo (2,6-dichlorophenol) came from BDH Chemicals Ltd. Poole, England.
IEF was made on gel slab using a LKB MULITPHOR 2117 cell and a Bio-Rad Power Supply Model 1420A. Slabs of 24.5×11.5 cm and 1 mm thickness were prepared on a sheet of GEL FIX. Polyacrylamide gels with a concentration of 8% T and with a cross-linkage of 4% C (30% T stock solution was prepared by dissolving 28.8 g of acrylamide and 1.2 g of bis-acrylamide in 100 ml distilled water), glycerol, 3.5% v/v, 2% AMPHOLINE, 0.05% ammonium persulphate as catalyst and 0.05% TEMED as accelerator. The carrier ampholite composition for 35 ml gelling solution was as follows:
The electrode solutions, as recommended by LKB for the respective pH range, were:
The gel was cooled to 4° C. with the aid of a LKB 2209 refrigerated constant temperature circulator. After prefocusing for 30 min. at 5 W, the samples (20 μl containing 0.2 to 2.5 μg of antibiotic) were loaded into the slot at the cathodic side. Electrofocusing was performed using 10 W constant power and was completed after 3-31/2 hours with a final potential of 1400 V.
The pH values were determined by dividing a portion of the gel into 1 cm sections, and eluting the individual pieces at room temperature with 1 ml of 10 mM KCl prior to pH readings.
The isoelectric point of each antibiotic was determined by interpolation on a curve obtained by plotting pH values versus the distance from the anode.
Polyacrylamide gel was placed on a 3 mm layer of agar medium N. 1 inoculated with 1% of Bacillus subtilis ATCC 6633 spore (0.5 OD at 600 nm). After 10 min the gel was removed and the plate was incubated overnight at 37° C. and examined for inhibition zones. The contrast between the area of lysis and that of bacterial growth was enhanced by use of Phenolindo(2,6-dichlorophenol) 1% w/v (oxidation-reduction indicator).

Row | Structure (SMILES) | pK2 ([1]; salt form per Table IV) | pK3 ([1]; value not in brackets) | MIC S. pneumoniae UC 41 [2] [µg/mL] | MIC Pseudomonas aeruginosa ATCC 10145 [3] [µg/mL] | MIC S. pyogenes C 203 [4] [µg/mL] | MIC S. epidermidis ATCC 12228 [5] [µg/mL] | MIC S. faecalis ATCC 7080 [6] [µg/mL] | MIC S. aureus Tour [7] [µg/mL] | MIC Proteus vulgaris X 19H ATCC 881 [8] [µg/mL] | MIC E. coli SKF 12140 [9] [µg/mL] | ED50, route of administration os. [10] [mg/kg] | ED50, route of administration s.c [10] [mg/kg] | Isoelectric point (pI) [11] | pK1 ([1]; salt form per Table IV)
1 | COC(=O)C(CCCCN)NC(=O)C1NC(=O)C2NC(=O)C(NC(=O)C3NC(=O)C4NC(=O)C(Cc5ccc(c(Cl)c5)Oc5cc3cc(c5O)Oc3ccc(cc3Cl)C2O)NC(=O)C(N)c2ccc(O)c(c2)Oc2cc(O)cc4c2)c2ccc(O)c(c2)-c2c(O)cc(O)cc21.Cl.Cl (stereo not shown) [Compound 73] | 6.5 | 8.9 | 0.06 | 32 | 0.12 | 0.06 | 0.12 | 0.06 | 32 | 4 | > 300 | 0.81 |  | 
2 | Cl.Cl.NC1C(=O)NC2Cc3ccc(c(Cl)c3)Oc3cc4cc(c3O)Oc3ccc(cc3Cl)C(O)C3NC(=O)C(NC(=O)C4NC(=O)C(NC2=O)c2cc(O)cc(c2)Oc2cc1ccc2O)c1ccc(O)c(c1)-c1c(O)cc(O)cc1C(C(=O)NC1CN2CCC1CC2)NC3=O (stereo not shown) [Compound 83] |  |  | 0.06 | 32 | 0.06 | 0.06 | 0.12 | 0.12 | 64 | 8 | > 300 | 0.46 | 8.9 | 
3 | CC(=O)NC1C(OC2c3ccc(c(Cl)c3)Oc3cc4cc(c3O)Oc3ccc(cc3Cl)CC3NC(=O)C(N)c5ccc(O)c(c5)Oc5cc(O)cc(c5)C(NC3=O)C(=O)NC4C(=O)NC3C(=O)NC2C(=O)NC(C(=O)NCCN2CCOCC2)c2cc(O)cc(O)c2-c2cc3ccc2O)OC(CO)C(O)C1O (stereo not shown) [Compound 14] | 6.8 |  | 1 (≈ 0.66 µM) | > 128 | 0.5 (≈ 0.33 µM) | 0.12 (≈ 0.0792 µM) | 0.5 (≈ 0.33 µM) | 0.5 (≈ 0.33 µM) | > 128 | > 128 |  |  | 8.0 | 5.3
4 | CN(C)CCCCCNC(=O)C1NC(=O)C2NC(=O)C(NC(=O)C3NC(=O)C4NC(=O)C(Cc5ccc(c(Cl)c5)Oc5cc3cc(c5O)Oc3ccc(cc3Cl)C2O)NC(=O)C(N)c2ccc(O)c(c2)Oc2cc(O)cc4c2)c2ccc(O)c(c2)-c2c(O)cc(O)cc21 (stereo not shown) [Compound 100] |  |  | 0.12 (≈ 0.0915 µM) | 64 (≈ 48.8 µM) | 0.06 (≈ 0.0458 µM) | 0.06 (≈ 0.0458 µM) | 0.12 (≈ 0.0915 µM) | 0.06 (≈ 0.0458 µM) | 128 (≈ 97.6 µM) | 8 (≈ 6.1 µM) |  |  | 9.0 | 
